Assay results published in patent US20010044470A1, “METHOD TO CONTROL ANIMAL ECTO-PARASITES” (priority 1997, published 2001).
Several values for one entry are separate records, joined by “and”; a condition that tells them apart may be missing. Equal values may be shown once.

Columns and labels:
Format in all cases: in vivo
[1] = test system: cat fleas (Ctenocephalides felis); assay: Flea egg hatching after oral application to mouse (systemic control); settings: mouse host, oral 20 mg/kg in corn oil; for adjusted percentage concerning the loss of hatchings (%) 5 days after: flea eggs retrieved 5 days after application; for adjusted percentage concerning the loss of hatchings (%) 14 days after: flea eggs retrieved 14 days after application; for adjusted percentage concerning the loss of hatchings (%) 30 days after: flea eggs retrieved 30 days after application
Protocol: By using an appropriate sonde for the mouse, oral application to the mouse was performed at the rate of about 10 mL of the composition per kilogram body weight of the mouse. The said mouse was then stabilized with a wire netting, and was placed in a plastic container (depth 15 cm×width 15 cm×height 60 cm). Thirty (10 male and 20 female) starved adult cat fleas (Ctenocephalides felis) were freed into the said plastic container and the produced f lea eggs were retrieved f ive days later. A suitable amount (about 60 eggs) was transferred to a plastic dish and, preserved under the conditions wherein the temperature was 26° C. and the humidity was at 90%. After 2 days of preservation, the hatching conditions were observed. Afterwards, the treated mouse was allowed to inhabit a standard pet cage with food and water. Ten days after the application, the mouse was stabilized, placed in a plastic container, and was exposed to cat fleas in the same way as stated above. The produced flea eggs were then retrieved 14 days after the application, preserved in the conditions stated above, and had the hatching conditions observed. Twenty-six days after the application, the mouse was stabilized, placed in a plastic container, and was exposed to cat fleas in the same way as stated above. The produced flea eggs were then retrieved 30 days after the application of the composition, preserved in the conditions stated above, and had the hatching conditions observed. The same procedure was repeated without the application of the composition. The percentages of hatching for applied mouse “T” and the percentage of hatching for non-applied mouse “C” were derived from the equation, respectively: T=(the amount of hatched eggs)÷(the amount of retrieved eggs)×100 C=(the amount of hatched eggs)÷(the amount of retrieved eggs)×100 The acquired values of “T” and “C” were used to determine the adjusted percentage concerning the loss of hatchings by employing equation 1. The acquired values of “T” and “C” were utilized in the following equation: The adjusted percentage concerning the loss of hatchings (%)=(C−T)÷C×100 to determine the adjusted percentage concerning the loss of hatchings (hereinafter, recited as APH). […] In other words, “APH” looks at the amount of eggs that were unable to hatch rather than the amount of eggs that were able to hatch.

[2] = test system: cat fleas (Ctenocephalides felis); assay: Flea egg hatching after oral application to cats (systemic control); settings: cat host, oral 20 mg/kg in cat feed
Protocol: Seven days after infestation, the weights of two cats of were measured and Compound #1 was applied orally to each of said two cats in an amount of 20 mg per one kilogram of the weight of the cat by incorporating Compound #1 into cat feed and having the cat to eat it. After application, the cats were placed in said steel cages.
(§1) The flea eggs collected onto the removable bottom tray were retrieved 6 and 14 days after the date of application. About 60 eggs were chosen from each batch of retrieved eggs. They were transferred to a plastic dish and then preserved under the conditions wherein the temperature was 26° C. and the humidity was at 90%. After 5-7 days of preservation, the eggs were observed about hatching.
The same procedure was repeated with another two cats except that cat feed comprising no Compound #1 was applied.
The percentages of hatching for applied cats “T” and the percentage of hatching for non-applied cats “C” were derived from the equation, respectively:
(§2) T=(the amount of hatched eggs)÷(the amount of retrieved eggs)×100
(§3) C=(the amount of hatched eggs)÷(the amount of retrieved eggs)×100
(§4) The obtained values of “T” and “C” were then used to determine the APH by employing the equation 1 mentioned above Example 1.

[3] = test system: cat fleas (Ctenocephalides felis); assay: Flea egg hatching after oral application to dogs (systemic control); settings: beagle dog host, oral 10 mg/kg in dog feed
Protocol: One day after infestation, the weights of three dogs were measured and Compound #1 was applied orally to each of said three dogs in an amount of 10 mg per one kilogram of the weight of the dog by incorporating Compound #1 into dog feed and having the dog to eat it. After application, the dogs were placed in said steel cages.
as §1, with “retrieved 4” for “retrieved 6”, “and 5” for “and 14”, “the” for “the date of”
The same procedure was repeated with another three dogs except that dog feed comprising no Compound #1 was applied. The percentages of hatching for applied dogs “T” and the percentage of hatching for non-applied dogs “C” were derived from the equation, respectively:
as §2, §3, §4

SMILES	adjusted percentage concerning the loss of hatchings (%) 5 days after [1]	adjusted percentage concerning the loss of hatchings (%) 14 days after [1]	adjusted percentage concerning the loss of hatchings (%) 30 days after [1]	average APH after 6 days ([2]; flea eggs retrieved 6 days after application)	average APH after 14 days ([2]; flea eggs retrieved 14 days after application, 20 mg/kg)	average APH after 4 days ([3]; flea eggs retrieved 4 days after application)	average APH after 5 days ([3]; flea eggs retrieved 5 days after application, 10 mg/kg)
O=C(NC(=O)c1c(F)cccc1F)Nc1cccc(Oc2ncc(C(F)(F)F)cc2Cl)c1 [Compound C, 1-(2,6-difluorobenzoyl)-3-[3-(3-chloro-5-trifluoromethylpyridin-2-yloxy)phenyl]urea]	96%	77%	11%				
O=C(NC(=O)c1c(F)cccc1F)Nc1ccc(OC(F)(F)C(F)F)cc1 [Compound B, 1-(2,6-difluorobenzoyl)-3-[4-(1,1,2,2-tetrafluoroethoxy)phenyl]urea]	83%	0%					
O=C(NC(=O)c1c(F)cccc1F)Nc1ccc(OC(F)(F)C(F)C(F)(F)F)cc1F (stereo not drawn) [Compound #1, 1-(2,6-difluorobenzoyl)-3-[2-fluoro-4-(1,1,2,3,3,3-hexafluoropropoxy)phenyl]urea]	100%	100%	93%	81.9%	79.6% and 80%	86.5%	76.6% and 77%
